According to patent US20250304623A1, “PEPTIDES FOR INTRACELLULAR DELIVERY” (UNIVERSIDADE DE SANTIAGO DE COMPOSTELA, priority 2022, published 2025):
*: point of attachment. NHNH2 = NN*

Assays:
Format in all cases: cell-based
[1] = system: ARPE19 cells expressing EGFP; assay: EGFP-targeting siRNA delivery (GFP silencing vs siMOCK), ARPE19
Procedure: (§1) To generate an EGFP expressing HeLa cell line, HeLa cells were transfected with EGFP pDNA (pEGFP-C1, Clontech) and stable transfectants were selected with 400 μg/mL of G-418 (Millipore). Green clones were selected by epifluorescence microscopy and tested for EGFP expression stability through several passages. […] All other EGFP-expressing cell lines were obtained in a similar way from parent non-EGFP-expressing cell lines.
(§2) Cells expressing EGFP were seeded in a 96 well plate the day before the experiment at a concentration of 50,000 cell/mL (100 μL/w) in DMEM+10% FBS+1% Gln-Abt. For robotic library screening, the delivery of an EGFP-targeting siRNA (EGFP: enhanced green fluorescent protein, Ambion® Silencer® GFP Positive Control siRNA (siGFP) (AM4626)) in six different cell lines expressing EGFP was performed. […] The mixture was shaken for 30 min at room temperature (rt) before the addition to the cells. The cell medium was aspirated, and cells were washed twice with PBS. Finally, 50 μL of the solution of siRNA/amphiphile complexes were added to the cells and incubated for 4 h. After transfection, the medium was replaced by 100 μL of fresh DMEM supplemented with 10% FBS. The fluorescence knockdown was quantified after 72 h in a plate reader, by comparison with cells transfected with a non-targeting siRNA control (siMOCK, Silencer™ Negative Control No. 1 siRNA (siMOCK) (AM4611)). EGFP knockdown was compared with Lipofectamine® RNAiMAX silencing efficiency (30-60% depending on cell line, defined with a numeric value in the below tables). All experiments were done in triplicate.
(§3) Tables 1-7: RLuc (pDNA) or EGFP (mRNA) expression levels were normalized to Lipofectamine reagents (value=1) and expressed as fold-times signal increase. In the case of siRNA, the siRNA treated cells fluorescence was compared with siMOCK control fluorescence, while Cas9-RNP mediated knockout was measured against the fluorescence of untreated cells. In both siRNA and Cas9-RNP, values are expressed as % fluorescence reduction. Amphiphile concentration was 5 μM in all cases. All experiments were performed in triplicate.
(§4) Tables 20-25 show the mean (triplicates) percentage of GFP-silencing, accounted by fluorescence intensity decrease relative to a non-targeting siRNA (siMOCK) control, measured after the transfection of siRNA by different amphiphiles at different concentrations in a variety of cell lines. Background values, accounted by untreated control cells, were subtracted for processing.

[2] = system: A549 cells expressing EGFP; assay: Cas9-RNP delivery against EGFP (gene editing, plate reader), A549; conditions: A549 cells
Procedure: as §1
Cells expressing EGFP were seeded in a 96 well plate the day before the experiment at a concentration of 50,000 cell/mL (100 μL/w) in DMEM+10% FBS+1% Gln-Abt. For robotic library screening, the delivery of Cas9-RNP against EGFP (RNP designed to knock-out the gene encoding for the enhanced green fluorescent protein (EGFP)) was performed. For RNP assembly, 9.2 μL of crRNA and 9.2 μL of tracrRNA were mixed in 211.6 μL of Nuclease-Free Duplex Buffer (IDT), incubated for 5 min at 95° C. and slowly cooled at rt (see I. Lostalé-Seijo, et al. Peptide/Cas9 nanostructures for ribonucleoprotein cell membrane transport and gene edition, Chem. Sci., 2017). Cas9 protein was dissolved in DMEM at a final concentration of 4 μM and equal volumes of the RNA complex and Cas9 were mixed and incubated for 5 min at rt. 75 μL of the corresponding amphiphile concentrations were added to 5 μL of RNP at 2 μM. The mixture was shaken for 30 min at room temperature before the addition to the cells. The cell medium was aspirated, and cells were washed twice with PBS. Cells were covered with 30 μL of DMEM and 20 μL of the RNP/amphiphile complexes were added to the cells (final peptide concentrations=2.5, 5 and 10 μM; final Cas9-RNP concentration=50 nM) and incubated for 4 h. After the incubation, the medium was replaced by 100 μL of fresh DMEM supplemented with 10% FBS. The total EGFP fluorescence was quantified after 72 h in a plate reader (FIG. 2, Table 1 (right) and Table 6). All experiments were done in triplicate.
as §3
Tables 26-31 show the mean (triplicates) percentage of gene editing, accounted by GFP fluorescence intensity decrease (% of reduction), measured after the transfection of Cas9-RNP by different amphiphiles at different concentrations in a variety of cell lines. Background values, accounted by untreated control cells, were subtracted for processing.

[3] = system: Hek293 cells expressing EGFP; assay: EGFP-targeting siRNA delivery (GFP silencing vs siMOCK), Hek293
Procedure: as §1, §2, §3, §4

[4] = system: A549 cells expressing EGFP; assay: EGFP-targeting siRNA delivery (GFP silencing vs siMOCK), A549; conditions: for percentage of GFP-silencing relative to siMOCK: A549 cells
Procedure: as §1, §2, §3, §4

## Ac-RK*LRRK*LRK*-NH2 (Ac-RK(NHNH2)LRRK(NHNH2)LRK(NHNH2)-NH2; not fully specified; printed as Ac-RK*LRRK*LRK*-NH2; also: K*2,K*6,K*9: native or modified lysine (ε-amide to a linker)) [Peptide 9.3]
[1]; Dodecanal, 5 μM
  percentage of GFP-silencing relative to siMOCK: 57%
[1]; Dodecanal, 10 μM
  percentage of GFP-silencing relative to siMOCK: 57%
[1]; Dodecanal, 15 μM
  percentage of GFP-silencing relative to siMOCK: 34%
[1]; Myristoleyl, 5 μM
  percentage of GFP-silencing relative to siMOCK: 47%
[1]; Oleyl, 5 μM
  percentage of GFP-silencing relative to siMOCK: 20%
[1]; Oleyl, 10 μM
  percentage of GFP-silencing relative to siMOCK: 55%
[1]; Oleyl, 15 μM
  percentage of GFP-silencing relative to siMOCK: 51%
[1]; Palmitoleyl, 5 μM
  percentage of GFP-silencing relative to siMOCK: 51%
[1]; Palmitoleyl, 10 μM
  percentage of GFP-silencing relative to siMOCK: 30%
[1]; Palmitoleyl, 15 μM
  percentage of GFP-silencing relative to siMOCK: 11%
[1]; Petroselinyl, 5 μM
  percentage of GFP-silencing relative to siMOCK: 18%
[1]; Petroselinyl, 10 μM
  percentage of GFP-silencing relative to siMOCK: 49%
[1]; Petroselinyl, 15 μM
  percentage of GFP-silencing relative to siMOCK: 52%
[2]; Dodecanal, 10 μM
  percentage of gene editing, GFP fluorescence intensity decrease (% of reduction): 0%
[2]; Dodecanal, 15 μM
  percentage of gene editing, GFP fluorescence intensity decrease (% of reduction): 25%
[2]; Myristoleyl, 5 μM
  percentage of gene editing, GFP fluorescence intensity decrease (% of reduction): 13%
[2]; Myristoleyl, 10 μM
  percentage of gene editing, GFP fluorescence intensity decrease (% of reduction): 17%
[2]; Myristoleyl, 15 μM
  percentage of gene editing, GFP fluorescence intensity decrease (% of reduction): 50%
[2]; Oleyl, 15 μM
  percentage of gene editing, GFP fluorescence intensity decrease (% of reduction): 18%
[2]; Palmitoleyl, 15 μM
  percentage of gene editing, GFP fluorescence intensity decrease (% of reduction): 39%
[2]; Petroselinyl, 10 μM
  percentage of gene editing, GFP fluorescence intensity decrease (% of reduction): 13%
[2]; Petroselinyl, 15 μM
  percentage of gene editing, GFP fluorescence intensity decrease (% of reduction): 47%
[3]; Dodecanal, 5 μM
  percentage of GFP-silencing relative to siMOCK: 19%
[3]; Dodecanal, 15 μM
  percentage of GFP-silencing relative to siMOCK: 40%
[3]; Myristoleyl, 10 μM
  percentage of GFP-silencing relative to siMOCK: 10%
[3]; Myristoleyl, 15 μM
  percentage of GFP-silencing relative to siMOCK: 43%
[3]; Oleyl, 15 μM
  percentage of GFP-silencing relative to siMOCK: 28%
[3]; Palmitoleyl, 10 μM
  percentage of GFP-silencing relative to siMOCK: 17%
[3]; Palmitoleyl, 15 μM
  percentage of GFP-silencing relative to siMOCK: 36%
[3]; Petroselinyl, 10 μM
  percentage of GFP-silencing relative to siMOCK: 3%
[3]; Petroselinyl, 15 μM
  percentage of GFP-silencing relative to siMOCK: −12%
[4]; A549, amphiphile 5 μM, hydrophobic tail, palmitoleyl hydrophobic tail
  siRNA % fluorescence reduction vs siMOCK: 75%
[4]; Dodecanal, 5 μM
  percentage of GFP-silencing relative to siMOCK: 35%
[4]; Dodecanal, 10 μM
  percentage of GFP-silencing relative to siMOCK: 35%
[4]; Dodecanal, 15 μM
  percentage of GFP-silencing relative to siMOCK: 55%
[4]; Myristoleyl, 5 μM
  percentage of GFP-silencing relative to siMOCK: 34%
[4]; Myristoleyl, 10 μM
  percentage of GFP-silencing relative to siMOCK: 58%
[4]; Myristoleyl, 15 μM
  percentage of GFP-silencing relative to siMOCK: 23%
[4]; Oleyl, 10 μM
  percentage of GFP-silencing relative to siMOCK: 32%
[4]; Oleyl, 15 μM
  percentage of GFP-silencing relative to siMOCK: 28%
[4]; Palmitoleyl, 5 μM
  percentage of GFP-silencing relative to siMOCK: 42%
[4]; Palmitoleyl, 10 μM
  percentage of GFP-silencing relative to siMOCK: 75%
[4]; Palmitoleyl, 15 μM
  percentage of GFP-silencing relative to siMOCK: 64%
[4]; Petroselinyl, 5 μM
  percentage of GFP-silencing relative to siMOCK: 6%
[4]; Petroselinyl, 10 μM
  percentage of GFP-silencing relative to siMOCK: 58%
[4]; Petroselinyl, 15 μM
  percentage of GFP-silencing relative to siMOCK: 75%

## Ac-RK*LRRLLRK*-NH2 (Ac-RK(NHNH2)LRRLLRK(NHNH2)-NH2; not fully specified; printed as Ac-RK*LRRLLRK*-NH2; also: K*2,K*9: native or modified lysine (ε-amide to a linker)) [Peptide 9.2]
[1]; Dodecanal, 5 μM
  percentage of GFP-silencing relative to siMOCK: 13%
[1]; Dodecanal, 10 μM
  percentage of GFP-silencing relative to siMOCK: 34%
[1]; Dodecanal, 15 μM
  percentage of GFP-silencing relative to siMOCK: 30%
[1]; Myristoleyl, 5 μM
  percentage of GFP-silencing relative to siMOCK: 24%
[2]; Dodecanal, 10 μM
  percentage of gene editing, GFP fluorescence intensity decrease (% of reduction): −22%
[2]; Dodecanal, 15 μM
  percentage of gene editing, GFP fluorescence intensity decrease (% of reduction): 4%
[2]; Myristoleyl, 5 μM
  percentage of gene editing, GFP fluorescence intensity decrease (% of reduction): 9%
[2]; Myristoleyl, 10 μM
  percentage of gene editing, GFP fluorescence intensity decrease (% of reduction): 7%
[2]; Myristoleyl, 15 μM
  percentage of gene editing, GFP fluorescence intensity decrease (% of reduction): 14%
[3]; Dodecanal, 5 μM
  percentage of GFP-silencing relative to siMOCK: 14%
[3]; Dodecanal, 15 μM
  percentage of GFP-silencing relative to siMOCK: 3%
[3]; Myristoleyl, 10 μM
  percentage of GFP-silencing relative to siMOCK: 10%
[3]; Myristoleyl, 15 μM
  percentage of GFP-silencing relative to siMOCK: −1%
[4]; Dodecanal, 5 μM
  percentage of GFP-silencing relative to siMOCK: 32%
[4]; Dodecanal, 10 μM
  percentage of GFP-silencing relative to siMOCK: 29%
[4]; Dodecanal, 15 μM
  percentage of GFP-silencing relative to siMOCK: 16%
[4]; Myristoleyl, 5 μM
  percentage of GFP-silencing relative to siMOCK: −1%
[4]; Myristoleyl, 10 μM
  percentage of GFP-silencing relative to siMOCK: −6%
[4]; Myristoleyl, 15 μM
  percentage of GFP-silencing relative to siMOCK: −14%
